Drawing on PubChem BioAssay (NCI), this text covers TGI and GI50 for five molecules.

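1) Cells in 96-well plates. 2) Compound, 48 h, 5 concentrations. 3) Linear interpolation between surrounding doses. 4) Unreached endpoint = highest concentration. GI50 = concentration required for 50% inhibition of growth. The concentration for full growth arrest is given as TGI.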 Where a SMILES comes first, the peptide text is derived from it. Bridges are numbered along the chain shown (N, C = ends). Roman numbers before positions name the chains, in order. [ ]: non-standard residue; d: D form. The star is where a group is joined. Heptadecanoyl = CCCCCCCCCCCCCCCCC(=O)*; Phg = N[CH](C(=O)O)c1ccccc1

Among the test systems are SK-MEL-2 melanoma; SW-620 colon; OVCAR-3 ovarian; MCF7 breast; HCT-116 colon; NCI-H23 lung; IGROV1 ovarian; SF-539 CNS; SF-268 CNS; K-562 leukemia.
Holding throughout (experiment): NCI anticancer screen, dose series, 48 h

As for `Nc1nc(Cl)nc2c1ncn2C1CCC(CO)O1` (stereo not given), the TGI with SK-MEL-2 melanoma, in the test on SW-620 colon, in the test on OVCAR-3 ovarian, in the test on MCF7 breast, in the test with HCT-116 colon and in the test with NCI-H23 lung was above 100 µM each time. In the test with IGROV1 ovarian, this molecule gave a TGI above 100 µM.
For the molecule `CN(C)C(=S)SCc1ccccc1`, the TGI in the test on SK-MEL-2 melanoma, with SF-539 CNS, in the test on SW-620 colon, in the test with OVCAR-3 ovarian, in the test with MCF7 breast and in the test on SF-268 CNS was above 100 µM each time. For the same molecule, the TGI in the test on HCT-116 colon, in the test on NCI-H23 lung and with IGROV1 ovarian was above 100 µM in each case.
Consider `Cc1cccc(C(O)c2ccccn2)c1O` (stereo not given), for which the TGI in the test on SF-539 CNS, in the test with SW-620 colon, in the test on K-562 leukemia, with OVCAR-3 ovarian, in the test on MCF7 breast and in the test with SF-268 CNS was above 100 µM each time. The TGI in the test with HCT-116 colon, in the test on NCI-H23 lung and in the test on IGROV1 ovarian was above 100 µM in each case.
With `N#CC(C#N)=Cc1ccc(-c2ccc(-c3nc4ccccc4s3)cc2)s1`, the GI50 was 33.1 µM with SK-MEL-2 melanoma; 18.3 µM in the test with SF-539 CNS; 19.8 µM in the test on SW-620 colon; 17.8 µM with K-562 leukemia; 14.9 µM in the test with OVCAR-3 ovarian; 26.2 µM with MCF7 breast. In addition, the GI50 is 25.5 µM in the test with SF-268 CNS, 12.3 µM in the test with HCT-116 colon, 18.1 µM in the test on NCI-H23 lung and 4.62 µM in the test with IGROV1 ovarian. In addition, the TGI was above 100 µM with SK-MEL-2 melanoma; 36.3 µM with SF-539 CNS; above 100 µM in the test on SW-620 colon; 57.4 µM in the test on K-562 leukemia; 34.8 µM in the test with OVCAR-3 ovarian; above 100 µM with MCF7 breast. Besides, the TGI in the test on SF-268 CNS was above 100 µM; in the test with HCT-116 colon, 31.1 µM; in the test on NCI-H23 lung, 52.9 µM; in the test with IGROV1 ovarian, 27.1 µM.
For `CCCCCCCCCCCCCCCCC(=O)N1CCCC1C(=O)NCC(=O)NC(C(=O)N1CCCC1C(=O)NC(CO)C(=O)NC(Cc1ccc(O)cc1)C(=O)NC(CCCCNC(=O)C1CCCN1C(=O)C(CCCCN)NC(=O)C(CCCCN)NC(=O)C(CCCCN)NC(=O)C(CCCNC(=N)N)NC(=O)C(CCCCN)NC(=O)C(N)C(C)C)C(=O)NC(CC(C)C)C(=O)NC(CCCNC(=N)N)C(=O)N1CCCC1C(=O)NCC(N)=O)c1ccccc1` (stereo not given) (I: Heptadecanoyl-PG[Phg]PSYKLRPG-NH2 / II: H-VKRKKKP; amide I:7-II:C; configuration not given here), the GI50 is 50.3 µM in the test with SK-MEL-2 melanoma; 34.4 µM in the test with SF-539 CNS; 40.5 µM in the test with SW-620 colon; 10.2 µM in the test on K-562 leukemia; 27 µM in the test on OVCAR-3 ovarian; 23.6 µM in the test on MCF7 breast. For the same molecule, the GI50 in the test with SF-268 CNS is 15 µM; with HCT-116 colon, 13 µM; with NCI-H23 lung, 31.5 µM; in the test on IGROV1 ovarian, 24.8 µM. Moreover, the TGI in the test on SK-MEL-2 melanoma was above 100 µM; in the test with SF-539 CNS, above 100 µM; with SW-620 colon it was above 100 µM; in the test with K-562 leukemia, 86.8 µM; in the test with OVCAR-3 ovarian, 71.2 µM; in the test on MCF7 breast it was above 100 µM. For the same molecule, the TGI in the test with SF-268 CNS was above 100 µM; in the test with HCT-116 colon it was 43.8 µM; in the test on NCI-H23 lung, above 100 µM; in the test on IGROV1 ovarian, 75.7 µM.
